Data on twelve molecules can be found in US20250387504A1, “ANTIBODY-DRUG CONJUGATES OF ANTINEOPLASTIC COMPOUNDS AND METHODS OF USE THEREOF” (Novartis AG, priority 2022, published 2025).

Series [1] relates to KMS-27. The experiment in a line: CellTiter-Glo proliferation assay, CD48 MCL-1/BCL-xL and BCL-xL ADCs (Example 6). Format: cell-based. Conditions: Table 3 CD48 ADC, 5 days; for IC50: KMS-27, 120 h, 0.01-600 nM. As to the method:
(§1) The next day, free MCL-1 payload (P1), free BCL-xL payload (P5 and P6) and targeting MCL-1 and BCL-xL ADCs and targeting BCL-xL ADCs were prepared at 10X in standard growth media. […] Each drug concentration was tested in quadruplets.
(Cellular ATP, detected with luciferase, serves as a proxy for viable cell number.)

Another series concerns EOL-1. The experiment in a line: CellTiter-Glo proliferation assay, CD74 MCL-1/BCL-xL and BCL-xL ADCs (Example 6). The settings on record: Table 4 CD74 ADC, 5 days; for IC50: Homo sapiens, EOL1, 120 h, 0.01-600 nM. Format: cell-based. As to the method:
(§2) The CD74 MCL-li and BCL-xLi antibody drug conjugates and the CD74 BCL-xL antibody drug conjugates were tested against two endogenous cancer cell lines. • Kasumi-6: ATCC No. CRL-2775 cultured in RPMI 1640 medium with 2 mM L-glutamine adjusted to contain 1.5 g/L sodium bicarbonate, 4.5 g/L glucose, 10 mMv HEPES, and 1.0 mM sodium pyruvate supplemented with 2 ng/ml human recombinant granulocyte macrophage colony stimulating factor (GM-CSF) and 20% FBS • EOL-1: DSMZ No. ACC-386 cultured in RPMI-1640+10% FBS
as §1

The test system of another series is Kasumi-6. The series is described as above. The settings on record: Table 4 CD74 ADC, 5 days; for IC50: 120 h, 0.01-600 nM. Format: cell-based. As to the method: as §2, §1
The test system of series [2] is hematological malignancies and solid tumors. The settings on record: several hematological malignancies and solid tumors; cited from earlier work.
For the next series, the system named is lymphoid malignancies. Conditions: cited from earlier work.
In series [3] the test system is T-ALL (T-cell Acute Lymphoblastic Leukemia) and different types of solid tumors. The settings on record: cited from earlier work.
Another series has as its system lymphocyte proliferation. Conditions: in vitro; cited from earlier work.
For series [4], the system named is animal models of arthritis and lupus. The settings on record: mice; cited from earlier work.
A further series relates to allogeneic T-cell. The settings on record: in vitro; cited from earlier work.
In series [5] the test system is allogeneic T- and B-cell responses. Conditions: after skin transplantation; cited from earlier work.
For a further series, the system named is KHM-1B. The experiment in a line: CellTiter-Glo proliferation assay, CD48 MCL-1 and BCL-2 ADCs (Example 4). The settings on record: 120 h, read-out: KHM-1B IC50 (nM).
Series [6] has as its system KMS-27. The description is as above. Conditions: KMS-27, 120 h, read-out: KMS-27 IC50 (nM).
Protocol: (§3) The ability of the MCL-1 and BCL-2 antibody drug conjugates to inhibit cell proliferation and survival was assessed using the Promega CellTiter-Glo® proliferation assay.
(§4) Cell lines were cultured in media that is optimal for their growth at 5% CO2, 37° C. in a tissue culture incubator. Prior to seeding for the proliferation assay, the cells were split at least 2 days before the assay to ensure optimal growth density. On the day of seeding, cell viability and cell density were determined using a cell counter (Vi-Cell XR Cell Viability Analyzer, Beckman Coulter). […] Cells were seeded at a density of 1,000 cells per well in 45 μL of standard growth media. Plates were incubated at 5% CO2, 37° C. overnight in a tissue culture incubator. The next day, free MCL-1 and BCL-2 payloads, targeting MCL-1 and BCL-2 ADCs, and non-targeting isotype ADCs free MCL-1 and BCL-2 payloads, were prepared at 10× in standard growth media. […] Each drug concentration was tested in quadruplets. Plates were incubated at 5% CO2, 37° C. for 5 days in a tissue culture incubator, after which cell viability was assessed through the addition of 25 L μof CellTiter Glo® (Promega, cat #G7573), a reagent which lyses cells and measures total adenosine triphosphate (ATP) content. Plates were incubated at room temperature for 10 minutes to stabilize luminescent signals prior to reading using a luminescence reader (EnVision Multilabel Plate Reader, PerkinElmer). To evaluate the effect of the drug treatments, luminescent counts from wells containing untreated cells (100% viability) were used to normalize treated samples. […] IC50 and Amax values were extrapolated from the resultant curves.
Another series relates to KMS-21-BM. Described as above. The settings on record: 120 h, read-out: KMS-21-BM IC50 (nM).
Another series relates to NCI-H929. The description is as above. Conditions: Homo sapiens, NCI-H929, 120 h, read-out: NCI-H929 IC50 (nM).
Another series deals with RL. The description is as above. Conditions: Homo sapiens, 120 h, read-out: RL IC50 (nM).
Another series has as its system AMO-1. The description is as above. Conditions: Homo sapiens, AMO1, 120 h, read-out: AMO-1 IC50 (nM).
The subject of another series is WSU-DLCL2. The series is described as above. The settings on record: Homo sapiens, WSUDLCL2, 120 h, read-out: WSU-DLCL2 IC50 (nM).
A further series concerns MOLP-8. The description is as above. Conditions: Homo sapiens, MOLP-8, 120 h, read-out: MOLP-8 IC50 (nM).
The subject of another series is KE-97. The series is described as above. Conditions: KE-97, 120 h, read-out: Ke97 IC50 (nM).
Another series deals with TROP2 (human) (UniProt P09758). The experiment in a line: cell-based or functional assay.
TROP2 (human), sequence (P09758 27-323): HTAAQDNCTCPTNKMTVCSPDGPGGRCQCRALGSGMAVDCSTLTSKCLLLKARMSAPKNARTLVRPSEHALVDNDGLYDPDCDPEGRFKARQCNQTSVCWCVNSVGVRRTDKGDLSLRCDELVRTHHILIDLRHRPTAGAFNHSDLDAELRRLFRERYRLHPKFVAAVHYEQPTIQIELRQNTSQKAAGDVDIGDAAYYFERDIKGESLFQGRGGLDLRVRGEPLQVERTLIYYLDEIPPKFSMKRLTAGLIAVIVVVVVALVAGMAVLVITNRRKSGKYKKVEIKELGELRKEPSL
The target in the next series is HER2 (UniProt P04626). Kind of series: cell-based or functional assay.

Protocol for AMO-1: as §3, §4
Protocol for KE-97: as §3, §4
Protocol for KHM-1B: as §3, §4
Protocol for KMS-21-BM: as §3, §4
Protocol for MOLP-8: as §3, §4
Protocol for NCI-H929: as §3, §4
Protocol for RL: as §3, §4
Protocol for WSU-DLCL2: as §3, §4

Turning to `Cc1c(Nc2nc3ccccc3s2)nnc2c1CCCN2c1nc(C(=O)O)c(CCCOc2ccc(C#CCN(C)C)cc2F)s1` [P6, 2-[3-(1,3-Benzothiazol-2-ylamino)-4-methyl-6,7-dihydro-SH-pyrido[2,3-c]pyridazin-8-yl]-5-[3-[4-[3-(dimethylamino)prop-1-ynyl]-2-fluoro-phenoxy]propyl]thiazole-4-carboxylic acid], the IC50 is 7.89 nM in the series on KMS-27 [1], below 10 nM in the series with EOL-1 and below 10 nM in the series on Kasumi-6. The “KMS-27 Amax (Span)” value in the series on KMS-27 [1] stood at 93.7.
In the case of `CC1(C)CCC(c2ccc(Cl)cc2)=C(CN2CCN(c3ccc(C(=O)NS(=O)(=O)c4ccc(N[C@H](CCN5CCOCC5)CSc5ccccc5)c(S(=O)(=O)C(F)(F)F)c4)cc3)CC2)C1` [ABT-263, navitoclax], the “activity in pre-clinical models” value in series [2] is given as “shown activity”. Besides, in the series with lymphoid malignancies, the “antitumor activity in clinical studies” value is given as “objective antitumor activity”.
In the case of `Cc1c(-c2ccc(N3CCc4cccc(C(=O)Nc5nc6ccccc6s5)c4C3)nc2C(=O)O)cnn1CC12CC3CC(CC(C3)C1)C2` [A-1331852], the “in vivo activity in pre-clinical models” value in series [3] is “in vivo activity”.
`CN(C)CC[C@H](CSc1ccccc1)Nc1ccc(S(=O)(=O)NC(=O)c2ccc(N3CCN(Cc4ccccc4-c4ccc(Cl)cc4)CC3)cc2)cc1[N+](=O)[O-]` [ABT-737]: the “inhibition of lymphocyte proliferation” value in the series on lymphocyte proliferation is listed as “potent inhibition”. The disease severity entry in series [4] is on record as “significant decrease in disease severity”. The “allogeneic T-cell activation, proliferation, and cytotoxicity” value with allogeneic T-cell was “prevented”. Further, in [5], the “allogeneic T- and B-cell responses” value is listed as “inhibited”.
As for `Cc1c(N(C(=O)c2cc(-c3cc4c(cc3C(=O)N3Cc5ccccc5C[C@H]3C)CN(C(=O)Cc3ccc(OCCN5CCOCC5)cc3)CC4)n(C)c2C)c2ccc(O)cc2)cc(C#N)n1C` [P4, N-(5-cyano-1,2-dimethyl-1H-pyrrol-3-yl)-N-(4-hydroxyphenyl)-1,2-dimethyl-5-{7-[(3R)-3-methyl-1,2,3,4-tetrahydroisoquinoline-2-carbonyl]-2-(2-{4-[2-(morpholin-4-yl)ethoxy]phenyl}acetyl)-1,2,3,4-tetrahydroisoquinolin-6-yl}-1H-pyrrole-3-carboxamide], the IC50 is above 10 nM with KHM-1B; 0.999 nM in the series on KMS-27 [6]; above 100 nM in the series on KMS-21-BM; above 250 nM with NCI-H929; 1.26 nM in the series with RL; above 250 nM with AMO-1. Further, the values for the IC50 in the series on WSU-DLCL2, in the series on MOLP-8 and with KE-97 were 4.17 nM, above 250 nM and above 250 nM, respectively.
In the case of `Cc1c(Nc2nc3ccccc3s2)nnc2c1CCCN2c1ccc(-c2cnn(CC34CC5(C)CC(C)(C3)CC(OCCNCCCO)(C5)C4)c2C)c(C(=O)O)n1` [P5, 6-[3-(1,3-benzothiazol-2-ylamino)-4-methyl-6,7-dihydro-5H-pyrido[2,3-c]pyridazin-8-yl]-3-[1-[[3-[2-(3-hydroxypropylamino)ethoxy]-5,7-dimethyl-1-adamantyl]methyl]-5-methyl-pyrazol-4-yl]pyridine-2-carboxylic acid], the IC50 with KMS-27 [1] is below 5 nM. Also, in the series on EOL-1, inhibition was half-maximal at 0.488 nM (IC50) and the “EOL-1 Amax (Span)” value is reported as 94.9. For the same molecule, in the series with Kasumi-6, the midpoint of inhibition, the IC50, lay at 11.9 nM and the “Kasumi-6 Amax (Span)” value is 84.5.
`Cc1c(C(=O)N(c2ccc(O)cc2)c2cnn(C(F)F)c2)cc(-c2cc3c(cc2C(=O)N2Cc4ccccc4C[C@H]2C)CN(C(=O)Cc2ccc(OCCN4CCOCC4)cc2)CC3)n1C` [P3]: the IC50 with KHM-1B is above 10 nM; with KMS-27 [6], 3.91 nM; in the series on KMS-21-BM, above 100 nM; with NCI-H929, above 250 nM; in the series with RL, 11.8 nM; with AMO-1, above 250 nM. Further, the IC50 in the series with WSU-DLCL2 was 5.41 nM; in the series on MOLP-8 it was above 250 nM; with KE-97, above 250 nM.
In the case of `Cc1c(N(C(=O)c2cc(-c3cc(Cl)ccc3C(=O)N3Cc4ccccc4C[C@H]3CCCN(C)C)n(C)c2C)c2ccc(O)cc2)cc(C#N)n1C` [P2, 5-[5-chloro-2-[(3R)-3-[3-(dimethylamino)propyl]-3,4-dihydro-1H-isoquinoline-2-carbonyl]phenyl]-N-(5-cyano-1,2-dimethyl-pyrrol-3-yl)-N-(4-hydroxyphenyl)-1,2-dimethyl-pyrrole-3-carboxamide], the IC50 with KHM-1B was above 10 nM; in the series with KMS-27 [6], 0.316 nM; in the series on KMS-21-BM, above 100 nM; in the series on NCI-H929 it was above 250 nM; in the series with RL, 6.26 nM; with AMO-1, above 250 nM. Further, the half-maximal inhibitory concentration (IC50) is 3.77 nM in the series on WSU-DLCL2, above 250 nM in the series on MOLP-8 and above 250 nM in the series on KE-97.
With `CN(C)CC#Cc1ccc(OCCCc2sc(N3CCc4cccc(C(=O)Nc5nc6ccccc6s5)c4C3)nc2C(=O)O)c(F)c1` [A-1155463], the “in vivo activity in pre-clinical models” value in series [3] was “in vivo activity”.

B1: Datopotamab-P5-L12-P7 (antibody, INN chains, looked up, V domains shown)
VH: QVQLVQSGAEVKKPGASVKVSCKASGYTFTTAGMQWVRQAPGQGLEWMGWINTHSGVPKYAEDFKGRVTISADTSTSTAYLQLSSLKSEDTAVYYCARSGFGSSYWYFDVWGQGTLVTVSS
VL: DIQMTQSPSSLSASVGDRVTITCKASQDVSTAVAWYQQKPGKAPKLLIYSASYRYTGVPSRFSGSGSGTDFTLTISSLQPEDFAVYYCQQHYITPLTFGQGTKLEIK
modifications: BCLxLi/TOPOi dual drug-linker P5-L12-P7
Take B1: the IC50 (nM), NCI-H441 in the series with TROP2 (human) came to 0.692 nM.

B2: Datopotamab-mono-L3-P8 (antibody, INN chains, looked up, V domains shown)
VH: B1 VH
VL: B1 VL
modifications: TOPOi mono-loaded drug-linker L3-P8
With B2, the IC50 (nM), NCI-H441 in the series with TROP2 (human) was below 5 nM.

B3: Disitamab-P5-L12-P7 (antibody, INN chains, looked up, V domains shown)
VH: EVQLVQSGAEVKKPGATVKISCKVSGYTFTDYYIHWVQQAPGKGLEWMGRVNPDHGDSYYNQKFKDKATITADKSTDTAYMELSSLRSEDTAVYFCARNYLFDHWGQGTLVTVSS
VL: DIQMTQSPSSVSASVGDRVTITCKASQDVGTAVAWYQQKPGKAPKLLIYWASIRHTGVPSRFSGSGSGTDFTLTISSLQPEDFATYYCHQFATYTFGGGTKVEIK
modifications: BCLxLi/TOPOi dual payload P5-L12-P7
B3 gave an IC50 (nM), inhibition of cell proliferation and survival (CellTiter-Glo), UACC-812 cells in the series with HER2 of 0.191 nM.

One may read the IC50 as the point on the concentration scale where inhibition reaches its midpoint.
